In US20180021277A1, “ANTI-VIRULENCE COMPOSITIONS AND METHODS” (priority 2012, published 2018):
Where a chain is given by its changes, count along the chain named. Entries after “also recorded” stand apart in the source; their conditions may differ.

Assays:
MRSA USA300 [1] = assay: Biofilm measurement (crystal violet), MRSA; type: cell-based, Staphylococcus aureus; conditions: control = 100
Experimental: Bacterial cells were grown in Luria Broth overnight and an OD600 of 0.5 corresponding to 10^6 cfu/mL. 200 μL of this bacterial culture was plated with the presence of compound at various concentrations. Biofilm was allowed to form by placing the plate at 37° C. in the incubator without shaking. The plate was then washed 2× with water while being careful not to disturb the biofilm. Water was aspirated out and the plate was baked dry in a 60° C. incubator for 2 h. 125 μL of a 0.06% crystal violet solution ([…] in H2O) was added to each well and allowed to sit at room temperature for 15 minutes. […] The plate was inverted on a paper towel to dry overnight.125 μL of 30% acetic acid was added to each well and was left at room temperature for 15 minutes. The wells were mixed by pipetting and the solution was transferred to a clean 96-well plate and read at OD595.

[2] = system: Strepococcus pneumonia NR13395; assay: Host cell damage assay (LDH leakage), Streptococcus pneumoniae; type: cell-based; conditions: THP-1 human monocytes
Experimental: (§1) Damage to host cells was measured by leakage of lactate dehydrogenase (LDH) with the CytoTox 96 Non-Radioactive Cytotoxicity LDH Assay Promega Kits G178 and G1782 according to manufacturer's instructions.
(§2) […] The bacteria were cultured at 37° C., in a shaking incubator for 6 h at which time 20 μL of bacterial culture was added to 5×10^4 THP-1 monocytes or J774.2 macrophages in 100 μL of cell media (DMEM for J774.2 cells and RPMI for THP-1 cells) in 96 well plates. Bacteria and macrophage/monocytes were incubated together for 40 min at 37° C. Plates were then spun at 250 g for 4 min and 50 μL of the supernatant was removed to a new 96 well plate. 50 μL of substrate mix+assay buffer were added and incubated at room temperature for 10-30 min depending upon the rate of product formation and stopped by addition of 50 μL stop solution. The colorometric products were read at 490 nm on a Victor 3 plate reader. The data presented are from experiments performed in triplicate.
(§3) Gram-positive pathogens compromise host cell defense factors by puncturing membranes of immune system cells. To examine F19 efficacy in preventing host cell damage by various pathogens cell lysis assays were carried out by measuring leakage of lactate dehydrogenase (LDH) from cells. F19 indeed inhibits pathogen-mediated lysis of human THP-1 monocytes and mouse macrophage cell line J7774.2 by a series of Gram-positive pathogens, including MRSA, MRSE, Streptococcus pyogenes, Streptococcus pneumoniae and Bacillus cereus in a dose dependent manner (Table 2 for MRSA, Table 4 for other pathogens).

[3] = biological target: T1, AgrA_C I238A, V235A, V232A and double mutants (Staphylococcus aureus, UniProt P0A0I7, I238A/V235A); assay: Microscale thermophoresis binding to AgrA_C alanine mutants
T1 construct: made in house
T1 sequence (P0A0I7 143-238 V235A/I238A): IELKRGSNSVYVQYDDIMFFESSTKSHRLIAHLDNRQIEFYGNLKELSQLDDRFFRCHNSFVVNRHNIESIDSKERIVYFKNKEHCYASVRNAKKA

[4] = biological target: T2, AgrA_C I238A, V235A, V232A and double mutants (Staphylococcus aureus, UniProt P0A0I7, V232A); assay: as above
T2 construct: made in house
T2 sequence (P0A0I7 143-238 V232A): T1 sequence (P0A0I7 143-238 V235A/I238A) with V90A, A93V, A96I

[5] = biological target: T3, AgrA_C I238A, V235A, V232A and double mutants (Staphylococcus aureus, UniProt P0A0I7, I238A); assay: as above; conditions: data not shown
T3 construct: made in house
T3 sequence (P0A0I7 143-238 I238A): T1 sequence (P0A0I7 143-238 V235A/I238A) with A93V

[6] = biological target: T4, AgrA_C I238A, V235A, V232A and double mutants (Staphylococcus aureus, UniProt P0A0I7, V235A); assay: as above; conditions: data not shown
T4 construct: made in house
T4 sequence (P0A0I7 143-238 V235A): T1 sequence (P0A0I7 143-238 V235A/I238A) with A96I

MRSA USA300 [7] = assay: Host cell damage assay (LDH leakage), MRSA; type: cell-based, Staphylococcus aureus; conditions: for % Damage (LDH Leakage): THP-1 human monocytes; for Damage (%): Table 2, control = 100
Experimental: as §1, §2, §3

MRSA USA300 [8] = type: in vivo, mice; conditions: topical twice a day for seven days, day 8
[9] = system: MRSA strain lacking the agr operon (Lac Δagr); assay: Biofilm formation in MRSA strain lacking the agr operon; type: cell-based, Staphylococcus aureus; conditions: data not shown
[10] = system: MRSA knockout strain (Lac Δagr); type: cell-based, Staphylococcus aureus; conditions: data not shown
MRSA USA300 [11] = assay: Emergence of resistance in vitro: daily passaging with hemolysis read-out; type: cell-based, Staphylococcus aureus; conditions: 50 μg/mL, 16 daily passages; listed as F19
MRSA USA300 [12] = assay: Murine MRSA bacteremia/sepsis model

**Q.** What does the source list for CCCCCCc1cc(C(=O)COc2ccc(C(C)C)cc2)c(O)cc1O [4f-19]?
**A.** Biofilm (%) (MRSA USA300 [1]; F19 1 μg/ml): 78.8 ± 11.8%; Biofilm (%) (MRSA USA300 [1]; F19 10 μg/ml): 53.7 ± 7.9%; Biofilm (%) (MRSA USA300 [1]; F19 50 μg/ml): 20.6 ± 3.7%; % Damage (LDH Leakage) ([2]; F19 1 μg/mL): 89.3 ± 1.0%; % Damage (LDH Leakage) ([2]; F19 5 μg/mL): 68.3 ± 1.1%; % Damage (LDH Leakage) ([2]; F19 10 μg/mL): 45.5 ± 1.7%; % Damage (LDH Leakage) ([2]; F19 20 μg/mL): 37.1 ± 0.6%; % Damage (LDH Leakage) ([2]; F19 50 μg/mL): 37.7 ± 0.7%; binding to the I238A/V235A double mutant [3]: very weak binding at the background level of the instrument; affinity to V232A mutant [4]: no loss of affinity; reduction of affinity by I238A mutant [5]: 14 fold; reduction of affinity by V235A mutant [6]: 5 fold; % Damage (LDH Leakage) (MRSA USA300 [7]; F19 1 μg/mL): 62.0 ± 0.6%; % Damage (LDH Leakage) (MRSA USA300 [7]; F19 10 μg/mL): 44.2 ± 2.0%; % Damage (LDH Leakage) (MRSA USA300 [7]; F19 50 μg/mL): 29.1 ± 1.6%; Damage (%) (MRSA USA300 [7]; F19 1 μg/ml): 62.0 ± 0.6%; Damage (%) (MRSA USA300 [7]; F19 10 μg/ml): 44.2 ± 2.0%; Damage (%) (MRSA USA300 [7]; F19 50 μg/ml): 29.1 ± 1.6%; bacterial load on the wounds compared to vehicle-treated or untreated wounds (MRSA USA300 [8]): did not reduce the bacterial load on the wounds; tissue burden of the wound, average log CFUs ± standard deviation (MRSA USA300 [8]; cephalothin 30 mg/kg, F19 20 mg/kg, vancomycin 30 mg/kg): 8.50±0.4 log CFU; biofilm formation in Lac Δagr [9]: biofilm inhibition was also observed; synergy with antibiotics in Lac Δagr [10]: synergy is lost; emergence of resistance/tolerance: hemolysis of rabbit blood over daily passages (MRSA USA300 [11]): no increase in hemolysis; also recorded: No emergence of resistance; mean bacterial load in blood compared to vehicle-treated animals (MRSA USA300 [12]; 30 mg/kg IP twice daily, day 6): nearly an order of magnitude lower; survival (MRSA USA300 [12]; F19 alone 30 mg/kg IP twice daily for 7 days): 100%
